Measurements taken from article PMC6472409, “Dishevelled-3 conformation dynamics analyzed by FRET-based biosensors reveals a key role of casein kinase 1” (Nature Communications, 2019).
Where a chain is given by its changes, count along the chain named. Where a SMILES comes first, the peptide text is derived from it. [ ]: non-standard residue; d: D form. pS = N[C@@H](COP(=O)(O)O)C(=O)O

Key:
Type in all cases: binding
[1] = biological target: T1, PDZ domain of human DVL2 wild type (aa 265–361) (Homo sapiens, UniProt O14641); test: NMR titration with DVL C-terminal peptide, PDZ wild type
T1 construct: The PDZ domain of human DVL2 wild type (aa 265–361); His6-tag (N, cleaved yes); lipoyl domain (N, cleaved yes); made in house; host or cells: E. coli BL21 (DE3)
T1 sequence (O14641 265-361): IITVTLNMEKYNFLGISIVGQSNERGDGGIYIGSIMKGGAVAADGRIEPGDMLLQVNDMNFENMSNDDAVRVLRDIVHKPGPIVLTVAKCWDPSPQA
Procedure: (§1) The PDZ domain of human DVL2 wild type (aa 265–361) and phosphorylation-mimicking variant S286E + S329E were cloned into pET vector containing an N-terminal His6-tag and a lipoyl domain separated by a Tobacco Etch Virus (TEV) protease digestion site from the N-terminus of the inserts. Both proteins were expressed at high yields in E. coli BL21 (DE3) strain (New England Biolabs, #C2527I). For the NMR studies, ^13C- and ^15N-labeled proteins were prepared by growing cells in minimal medium supplemented with ^15NH4Cl (1 g/l) and ^13C6 glucose (2 g/l) as the sole nitrogen and carbon sources, respectively. Cells were grown at 37 °C to an OD600 of approximately 0.8 and protein expression was induced with 0.5 mM IPTG. Cells were lysed by sonication and centrifuged at 15,000g. Three purification steps were used for both proteins: Ni-NTA chromatography followed by overnight TEV cleavage to remove the N-terminal His6-tag and the lipoyl domain, ion exchange chromatography, and size exclusion chromatography. Finally, the untagged PDZ domain wild type or phosphorylation-mimicking variant was concentrated and exchanged to buffer for NMR or binding experiments containing 20 mM HEPES (pH 6.8) and 50 mM KCl. Human CK1ε (aa 1–294) was also cloned into a pET vector and purified using three purification steps as described for the PDZ domain.
(§2) A 4D HC(CC-TOCSY(CO))NH and a 4D ^13C, ^15N edited HMQC-NOESY-HSQC experiments were recorded at CEITEC Josef Dadok National NMR Centre on a 700 MHz Bruker Avance III spectrometers equipped with ^1H/^13C/^15N TCI cryogenic probe head with z-axis gradients. 4D spectra were processed with SSA package[59] and analyzed with SPARKY. Chemical shift assignments were obtained automatically using 4D-CHAINS[60] and checked manually. NMR titrations were performed in series of ^1H, ^15N HSQC spectra using 100 μM of ^15N-labeled protein (wild type or phosphorylation-mimicking variant) and increasing amounts of C-terminal DVL peptide (pS700) consisted of aa 698–716 from DVL3 (stock concentration of 800 μM). Steady-state^15N-^1H Nuclear Overhauser Effect values were measured under a steady-state condition with a 30 s interscan relaxation delay. Reference spectra and the spectra measured under steady-state conditions were measured in an interleaved manner.

[2] = biological target: T2, PDZ (S286E/S329E) of human DVL2 (Homo sapiens, UniProt O14641, S286E/S329E); test: NMR titration with DVL C-terminal peptide, PDZ phosphorylation-mimicking variant
T2 construct: The PDZ domain of human DVL2 wild type (aa 265–361) and phosphorylation-mimicking variant S286E + S329E; His6-tag (N, cleaved yes); lipoyl domain (N, cleaved yes); made in house; host or cells: E. coli BL21 (DE3)
T2 sequence (O14641 265-361 S286E/S329E): T1 sequence (O14641 265-361) with S22E, S65E
Procedure: as §1, §2

PDZ wild type from DVL2 = biological target: T3, PDZ wild type from DVL2 (Homo sapiens, UniProt O14641); test: Surface plasmon resonance, PDZ wild type; details: for Response (R.U.): SPR, equilibrium
T3 construct: The PDZ domain of human DVL2 wild type (aa 265–361); His6-tag (N, cleaved yes); lipoyl domain (N, cleaved yes); made in house; host or cells: E. coli BL21 (DE3)
T3 sequence (O14641 265-361): T1 sequence (O14641 265-361)
Procedure: as §1
(§3) SPR experiments were performed on a Biacore T200 instrument (GE Healthare). The wild type and phosphorylation-mimicking variant of PDZ from DVL2 were immobilized on carboxy-methylated dextran matrix (CM5 chip S Series) using amino coupling. Non-reacted groups were blocked by 1 M ethanolamine. […] The C-terminal DVL peptide (aa 698–716 from DVL3; pS700) was injected at increasing concentrations and long enough to reach steady state. SPR responses were measured and corrected for the response of the blank. Data points were collected from each binding sensogram before the end of the injection (equilibrium) and the dissociation constants were estimated by fitting the response at equilibrium versus the C-terminal peptide concentration using the following equation: Req = C*Rmax/(KD + C), where Req is the binding level in Response Units at different C-terminal peptide concentrations (C), Rmax the response at saturation (fitted), and KD the apparent dissociation constant (fitted).

[3] = biological target: T4, PDZ (S286E/S329E) from DVL2 (Homo sapiens, UniProt O14641, S286E/S329E); test: Surface plasmon resonance, PDZ phosphorylation-mimicking variant; details: for Response (R.U.): SPR, equilibrium
T4 construct: The PDZ domain of human DVL2 wild type (aa 265–361) and phosphorylation-mimicking variant S286E + S329E; His6-tag (N, cleaved yes); lipoyl domain (N, cleaved yes); made in house; host or cells: E. coli BL21 (DE3)
T4 sequence (O14641 265-361 S286E/S329E): T1 sequence (O14641 265-361) with S22E, S65E
Procedure: as §1, §3

[4] = Biacore T200, PDZ immobilized on CM5 chip, steady-state fit, read-out: apparent KD (SPR, one-site binding model)

Δδ (p.p.m.) F277 ([1]; pFRMA 50 uM): 0.028 p.p.m.
Δδ (p.p.m.) H342 ([1]; pFRMA 50 uM): 0.043 p.p.m.
Δδ (p.p.m.) K301 ([1]; pFRMA 50 uM): 0.035 p.p.m.
Δδ (p.p.m.) F277 ([1]; pFRMA 100 uM): 0.046 p.p.m.
Δδ (p.p.m.) H342 ([1]; pFRMA 100 uM): 0.07 p.p.m.
Δδ (p.p.m.) K301 ([1]; pFRMA 100 uM): 0.06 p.p.m.
Δδ (p.p.m.) F277 ([1]; pFRMA 200 uM): 0.066 p.p.m.
Δδ (p.p.m.) H342 ([1]; pFRMA 200 uM): 0.109 p.p.m.
Δδ (p.p.m.) K301 ([1]; pFRMA 200 uM): 0.092 p.p.m.
Δδ (p.p.m.) F277 ([1]; pFRMA 400 uM): 0.112 p.p.m.
Δδ (p.p.m.) H342 ([1]; pFRMA 400 uM): 0.174 p.p.m.
Δδ (p.p.m.) K301 ([1]; pFRMA 400 uM): 0.148 p.p.m.
affinity of phosphorylation-mimicking variant compared with PDZ wt (NMR) ([2]; fast exchange peaks, quantitative analysis): two-fold weaker affinity
Δδ (p.p.m.) F277 ([2]; pFRMA 50 uM): 0.02 p.p.m.
Δδ (p.p.m.) H342 ([2]; pFRMA 50 uM): 0.032 p.p.m.
Δδ (p.p.m.) K301 ([2]; pFRMA 50 uM): 0.026 p.p.m.
Δδ (p.p.m.) F277 ([2]; pFRMA 100 uM): 0.03 p.p.m.
Δδ (p.p.m.) H342 ([2]; pFRMA 100 uM): 0.056 p.p.m.
Δδ (p.p.m.) K301 ([2]; pFRMA 100 uM): 0.044 p.p.m.
Δδ (p.p.m.) F277 ([2]; pFRMA 200 uM): 0.048 p.p.m.
Δδ (p.p.m.) H342 ([2]; pFRMA 200 uM): 0.093 p.p.m.
Δδ (p.p.m.) K301 ([2]; pFRMA 200 uM): 0.071 p.p.m.
Δδ (p.p.m.) F277 ([2]; pFRMA 400 uM): 0.084 p.p.m.
Δδ (p.p.m.) H342 ([2]; pFRMA 400 uM): 0.164 p.p.m.
Δδ (p.p.m.) K301 ([2]; pFRMA 400 uM): 0.128 p.p.m.
Kd (PDZ wild type from DVL2; [4]): 305 µM
Response (R.U.) (PDZ wild type from DVL2; pFRMA 3.125 uM): 3.399 R.U.
Response (R.U.) (PDZ wild type from DVL2; pFRMA 6.25 uM): 3.725 R.U.
Response (R.U.) (PDZ wild type from DVL2; pFRMA 12.5 uM): 4.287 R.U.
Response (R.U.) (PDZ wild type from DVL2; pFRMA 25 uM): 4.98 R.U.
Response (R.U.) (PDZ wild type from DVL2; pFRMA 50 uM): 6.694 R.U.
Response (R.U.) (PDZ wild type from DVL2; pFRMA 100 uM): 9.137 R.U.
Response (R.U.) (PDZ wild type from DVL2; pFRMA 200 uM): 14.3144 R.U.
Response (R.U.) (PDZ wild type from DVL2; pFRMA 400 uM): 24.5768 R.U.
Kd [3, 4]: 754 µM
Response (R.U.) ([3]; pFRMA 3.125 uM): 1.637 R.U.
Response (R.U.) ([3]; pFRMA 6.25 uM): 1.9305 R.U.
Response (R.U.) ([3]; pFRMA 12.5 uM): 2.181 R.U.
Response (R.U.) ([3]; pFRMA 25 uM): 2.621 R.U.
Response (R.U.) ([3]; pFRMA 50 uM): 3.732 R.U.
Response (R.U.) ([3]; pFRMA 100 uM): 5.135 R.U.
Response (R.U.) ([3]; pFRMA 200 uM): 8.677 R.U.
Response (R.U.) ([3]; pFRMA 400 uM): 16.554 R.U.
peptide affinity of phosphorylation-mimicking variant compared with PDZ wt (SPR) ([3]; apparent dissociation constants from SPR): two-fold lower peptide affinity
Compound: CSCC[C@H](NC(=O)[C@@H](NC(=O)[C@H](CC(=O)O)NC(=O)[C@@H](NC(=O)[C@H](Cc1ccccc1)NC(=O)[C@H](Cc1ccccc1)NC(=O)[C@H](CCC(=O)O)NC(=O)[C@H](CO)NC(=O)[C@@H]1CCCN1C(=O)[C@H](CC(N)=O)NC(=O)CNC(=O)[C@H](CCSC)NC(=O)[C@H](C)NC(=O)[C@H](CCSC)NC(=O)[C@H](CCCNC(=N)N)NC(=O)[C@H](Cc1ccccc1)NC(=O)[C@H](COP(=O)(O)O)NC(=O)[C@H](CCC(N)=O)NC(=O)[C@@H](N)CCCNC(=N)N)C(C)C)C(C)C)C(=O)O [DVL C-terminal peptide] (H-RQ[pS]FRMAMGNPSEFFVDVM-OH)
